Experimental data: PubChem BioAssay (NCI)
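All cell lines were grown in 96-well plates and treated with compound for 48 hours. The concentration for 50% growth inhibition is given as GI50. TGI is the concentration that stops growth completely.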

Columns and labels:
Assay in all cases: growth of human tumour cells (NCI), 48 h
786-0 renal = tested on: 786-0 renal
A498 renal = tested on: A498 renal
A549 NSCLC = tested on: A549 NSCLC
ACHN renal = tested on: ACHN renal
BT-549 breast = tested on: BT-549 breast
CAKI-1 renal = tested on: CAKI-1 renal
CCRF-CEM leukemia = tested on: CCRF-CEM leukemia
COLO 205 colon = tested on: COLO 205 colon
DU-145 prostate = tested on: DU-145 prostate
EKVX NSCLC = tested on: EKVX NSCLC
HCC-2998 colon = tested on: HCC-2998 colon
HCT-116 colon = tested on: HCT-116 colon
HCT-15 colon = tested on: HCT-15 colon
HL-60(TB) leukemia = tested on: HL-60(TB) leukemia
HOP-62 NSCLC = tested on: HOP-62 NSCLC
HOP-92 NSCLC = tested on: HOP-92 NSCLC
HS 578T breast = tested on: HS 578T breast
HT29 colon = tested on: HT29 colon
IGROV1 ovarian = tested on: IGROV1 ovarian
K-562 leukemia = tested on: K-562 leukemia
KM12 colon = tested on: KM12 colon
LOX IMVI melanoma = tested on: LOX IMVI melanoma
M14 melanoma = tested on: M14 melanoma
MALME-3M melanoma = tested on: MALME-3M melanoma
MCF7 breast = tested on: MCF7 breast
MDA-MB-231 breast = tested on: MDA-MB-231 breast
MDA-MB-435 = tested on: MDA-MB-435
MOLT-4 leukemia = tested on: MOLT-4 leukemia
NCI-H226 lung = tested on: NCI-H226 lung
NCI-H23 lung = tested on: NCI-H23 lung
NCI-H460 lung = tested on: NCI-H460 lung
NCI-H522 lung = tested on: NCI-H522 lung
NCI/ADR-RES ovarian = tested on: NCI/ADR-RES ovarian
OVCAR-3 ovarian = tested on: OVCAR-3 ovarian
OVCAR-4 ovarian = tested on: OVCAR-4 ovarian
OVCAR-5 ovarian = tested on: OVCAR-5 ovarian
OVCAR-8 ovarian = tested on: OVCAR-8 ovarian
PC-3 prostate = tested on: PC-3 prostate
RPMI-8226 leukemia = tested on: RPMI-8226 leukemia
RXF 393 renal = tested on: RXF 393 renal
SF-268 CNS = tested on: SF-268 CNS
SF-295 CNS = tested on: SF-295 CNS
SF-539 CNS = tested on: SF-539 CNS
SK-MEL-28 melanoma = tested on: SK-MEL-28 melanoma
SK-MEL-5 melanoma = tested on: SK-MEL-5 melanoma
SK-OV-3 ovarian = tested on: SK-OV-3 ovarian
SN12C renal = tested on: SN12C renal
SNB-19 CNS = tested on: SNB-19 CNS
SNB-75 CNS = tested on: SNB-75 CNS
SR leukemia = tested on: SR leukemia
SW-620 colon = tested on: SW-620 colon
TK-10 renal = tested on: TK-10 renal
U251 CNS = tested on: U251 CNS
UACC-257 melanoma = tested on: UACC-257 melanoma
UACC-62 melanoma = tested on: UACC-62 melanoma
UO-31 renal = tested on: UO-31 renal

CCOC(=O)N[C@H]1CCc2c(Br)c(OC)c(OC)c(OC)c2-c2ccc(SC)c(=O)cc21
GI50 (786-0 renal): 0.0318 µM | TGI (786-0 renal): 25.1 µM | GI50 (A498 renal): < 0.01 µM | TGI (A498 renal): < 0.0115 µM | GI50 (A549 NSCLC): < 0.0184 µM | TGI (A549 NSCLC): > 43 µM | GI50 (ACHN renal): < 0.01 µM | TGI (ACHN renal): 15 µM | GI50 (BT-549 breast): 0.0115 µM | TGI (BT-549 breast): 8.97 µM | GI50 (CAKI-1 renal): < 0.0228 µM | TGI (CAKI-1 renal): 19.6 µM | GI50 (CCRF-CEM leukemia): < 0.01 µM | TGI (CCRF-CEM leukemia): > 42 µM | GI50 (COLO 205 colon): < 0.01 µM | TGI (COLO 205 colon): 0.0161 µM | GI50 (DU-145 prostate): < 0.01 µM | TGI (DU-145 prostate): 0.125 µM | GI50 (EKVX NSCLC): < 0.0112 µM | TGI (EKVX NSCLC): > 83.2 µM | GI50 (HCC-2998 colon): < 0.0155 µM | TGI (HCC-2998 colon): 1.41 µM | GI50 (HCT-116 colon): < 0.01 µM | TGI (HCT-116 colon): 11.8 µM | GI50 (HCT-15 colon): < 0.01 µM | TGI (HCT-15 colon): 12.2 µM | GI50 (HL-60(TB) leukemia): < 0.01 µM | TGI (HL-60(TB) leukemia): 0.0131 µM | GI50 (HOP-62 NSCLC): 0.0232 µM | TGI (HOP-62 NSCLC): 41.2 µM | GI50 (HOP-92 NSCLC): < 0.0137 µM | TGI (HOP-92 NSCLC): 6.19 µM | GI50 (HS 578T breast): < 0.01 µM | TGI (HS 578T breast): 37.3 µM | GI50 (HT29 colon): < 0.01 µM | TGI (HT29 colon): > 34.5 µM | GI50 (IGROV1 ovarian): 0.0189 µM | TGI (IGROV1 ovarian): 16.2 µM | GI50 (K-562 leukemia): < 0.01 µM | TGI (K-562 leukemia): > 38.2 µM | GI50 (KM12 colon): < 0.01 µM | TGI (KM12 colon): 3.79 µM | GI50 (LOX IMVI melanoma): < 0.01 µM | TGI (LOX IMVI melanoma): 12.5 µM | GI50 (M14 melanoma): < 0.0128 µM | TGI (M14 melanoma): 4.35 µM | GI50 (MALME-3M melanoma): < 0.01 µM | TGI (MALME-3M melanoma): 28.4 µM | GI50 (MCF7 breast): < 0.01 µM | TGI (MCF7 breast): 12.7 µM | GI50 (MDA-MB-231 breast): < 0.01 µM | TGI (MDA-MB-231 breast): 5.17 µM | GI50 (MDA-MB-435): < 0.01 µM | GI50 (MOLT-4 leukemia): < 0.0108 µM | TGI (MOLT-4 leukemia): > 45.3 µM | GI50 (NCI-H226 lung): < 0.0165 µM | TGI (NCI-H226 lung): 13.9 µM | GI50 (NCI-H23 lung): < 0.01 µM | TGI (NCI-H23 lung): 24 µM | GI50 (NCI-H460 lung): < 0.01 µM | TGI (NCI-H460 lung): 1.61 µM | GI50 (NCI-H522 lung): < 0.01 µM | TGI (NCI-H522 lung): 10.1 µM | GI50 (NCI/ADR-RES ovarian): 0.025 µM | TGI (NCI/ADR-RES ovarian): 7.58 µM | GI50 (OVCAR-3 ovarian): < 0.01 µM | GI50 (OVCAR-4 ovarian): 0.0608 µM | TGI (OVCAR-4 ovarian): > 53.5 µM | GI50 (OVCAR-5 ovarian): 0.0357 µM | TGI (OVCAR-5 ovarian): 25.6 µM | GI50 (OVCAR-8 ovarian): 0.0234 µM | TGI (OVCAR-8 ovarian): > 56.4 µM | GI50 (PC-3 prostate): < 0.01 µM | TGI (PC-3 prostate): > 44.5 µM | GI50 (RPMI-8226 leukemia): < 0.01 µM | TGI (RPMI-8226 leukemia): > 33.7 µM | GI50 (RXF 393 renal): < 0.01 µM | TGI (RXF 393 renal): 13.8 µM | GI50 (SF-268 CNS): 0.0125 µM | TGI (SF-268 CNS): 15 µM | GI50 (SF-295 CNS): < 0.01 µM | TGI (SF-295 CNS): 3.79 µM | GI50 (SF-539 CNS): < 0.01 µM | TGI (SF-539 CNS): < 0.0106 µM | GI50 (SK-MEL-28 melanoma): 8.06 µM | TGI (SK-MEL-28 melanoma): 23.4 µM | GI50 (SK-MEL-5 melanoma): < 0.01 µM | TGI (SK-MEL-5 melanoma): 0.0237 µM | GI50 (SK-OV-3 ovarian): < 0.01 µM | TGI (SK-OV-3 ovarian): 59.4 µM | GI50 (SN12C renal): < 0.0178 µM | TGI (SN12C renal): 19.8 µM | GI50 (SNB-19 CNS): < 0.01 µM | TGI (SNB-19 CNS): 26.5 µM | GI50 (SNB-75 CNS): < 0.01 µM | TGI (SNB-75 CNS): 16.1 µM | GI50 (SR leukemia): < 0.01 µM | TGI (SR leukemia): > 37.3 µM | GI50 (SW-620 colon): < 0.01 µM | TGI (SW-620 colon): 16.7 µM | GI50 (TK-10 renal): 3.8 µM | TGI (TK-10 renal): > 60.4 µM | GI50 (U251 CNS): < 0.01 µM | TGI (U251 CNS): 14.1 µM | GI50 (UACC-257 melanoma): 8.64 µM | TGI (UACC-257 melanoma): 45.2 µM | GI50 (UACC-62 melanoma): < 0.01 µM | TGI (UACC-62 melanoma): 14.2 µM | GI50 (UO-31 renal): 0.131 µM | TGI (UO-31 renal): 15.2 µM
